Experimental data published in patent publication US20070259844A1, “Antiviral Compositions And Methods Of Using The Same” (VGX PHARMACEUTICALS, priority 2003, published 2007).

How the values were obtained:
[1] = system: HCV RNA-replicating cell line AVA5; experiment: Primary in vitro anti-HCV screen, intracellular HCV RNA levels in AVA5 cells; assay type: cell-based
Experimental: (§1) The antiviral activity of test compounds are assayed in the stably HCV RNA-replicating cell line, AVA5, derived by transfection of the human hepatoblastoma cell line, Huh7 (Blight, et al., 2000, Sci. 290:1972). Compounds are added to dividing cultures once daily for three days (media is changed with each addition of compound). Cultures generally start the assay at 50% confluence and reach confluence during the last day of treatment. Intracellular HCV RNA levels and cytotoxicity are assessed 24 hours after the last dose of compound.
(§2) Assays are conducted using a single dose of test compound. Replicate cultures for HCV RNA levels (on 48-well plates) and triplicate cultures for cytoxicity (on 96-well plates) are used.
Intracellular HCV RNA levels are measured using standard blot hybridization (Korba & Gerin, 1992, Antivir. Res. 19:55) using triplicate cultures. HCV RNA levels in the treated cultures are expressed as a percentage of the mean levels of RNA detected in untreated cultures. Levels of β-actin RNA are used to normalize HCV RNA levels in each sample.

[2] = system: AVA5 cells (derived from human hepatoblastoma cell line Huh7); experiment: Cytotoxicity in the anti-HCV screen (AVA5 cultures); assay type: cell-based; details: 10 IU/ml
Experimental: as §1, §2

[3] = target: T1, human glucocorticoid receptor (Homo sapiens, UniProt P04150); details: cited from earlier work
T1 sequence (P04150 1-777): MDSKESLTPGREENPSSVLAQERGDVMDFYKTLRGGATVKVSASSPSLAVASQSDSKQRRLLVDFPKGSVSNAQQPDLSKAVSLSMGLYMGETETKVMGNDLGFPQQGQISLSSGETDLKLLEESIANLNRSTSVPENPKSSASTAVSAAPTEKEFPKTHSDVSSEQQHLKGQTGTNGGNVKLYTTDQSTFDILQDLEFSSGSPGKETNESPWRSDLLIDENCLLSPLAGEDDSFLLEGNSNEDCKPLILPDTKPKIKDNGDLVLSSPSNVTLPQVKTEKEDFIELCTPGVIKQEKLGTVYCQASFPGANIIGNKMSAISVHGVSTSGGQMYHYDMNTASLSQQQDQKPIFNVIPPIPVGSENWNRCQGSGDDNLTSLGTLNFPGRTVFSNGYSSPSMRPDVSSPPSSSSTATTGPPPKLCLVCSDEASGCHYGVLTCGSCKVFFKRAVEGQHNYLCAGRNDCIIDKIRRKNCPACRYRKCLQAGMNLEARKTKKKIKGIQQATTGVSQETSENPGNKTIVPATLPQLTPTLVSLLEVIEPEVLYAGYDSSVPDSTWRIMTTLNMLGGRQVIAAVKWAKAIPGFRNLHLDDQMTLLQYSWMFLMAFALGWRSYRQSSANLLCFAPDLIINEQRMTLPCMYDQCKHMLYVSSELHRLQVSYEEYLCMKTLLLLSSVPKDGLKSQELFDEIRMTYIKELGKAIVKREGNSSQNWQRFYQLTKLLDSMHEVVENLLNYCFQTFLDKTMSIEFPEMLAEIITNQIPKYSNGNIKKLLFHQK

[4] = Cytotoxicity in the anti-HCV screen (AVA5 cultures); assay type: cell-based, human; details: human, AVA5 cells (stably HCV RNA-replicating, derived from Huh7); toxicity control, AVA5 cells, once daily for three days; read-out: approximate CC90
Experimental: as §1, §2

Compound: α-interferon
- approximate EC90 ([1]; positive antiviral control, AVA5 cells, once daily for three days): ~10 IU/ml
- cytotoxicity at the EC90 [2]: no cytotoxicity

Compound: C[C@]12CCC(=O)C=C1CC[C@@H]1[C@@H]2[C@@H](O)C[C@@]2(C)[C@H]1CC[C@]2(O)C(=O)CO [cortisol, reference compound]
- relative binding affinity to the human glucocorticoid receptor [3]: 23%

Compound: NC(=O)c1ncn([C@@H]2O[C@H](CO)[C@@H](O)[C@H]2O)n1 [ribavirin, reference compound]
- antiviral activity at the CC90 ([1]; 100 μM): no antiviral activity
- CC90 at 3 days [4]: ~100 µM
